The text below walks through data of ChEMBL document CHEMBL1154793, “The lecanindoles, nonsteroidal progestins from the terrestrial fungus Verticillium lecanii 6144” (J Nat Prod, 2009).

pEC50: −log10 of the molar value. Some results are limits rather than exact numbers.

The target of one assay is T1, Estrogen receptor (Homo sapiens, UniProt P03372).
T1 sequence (P03372 whole entry): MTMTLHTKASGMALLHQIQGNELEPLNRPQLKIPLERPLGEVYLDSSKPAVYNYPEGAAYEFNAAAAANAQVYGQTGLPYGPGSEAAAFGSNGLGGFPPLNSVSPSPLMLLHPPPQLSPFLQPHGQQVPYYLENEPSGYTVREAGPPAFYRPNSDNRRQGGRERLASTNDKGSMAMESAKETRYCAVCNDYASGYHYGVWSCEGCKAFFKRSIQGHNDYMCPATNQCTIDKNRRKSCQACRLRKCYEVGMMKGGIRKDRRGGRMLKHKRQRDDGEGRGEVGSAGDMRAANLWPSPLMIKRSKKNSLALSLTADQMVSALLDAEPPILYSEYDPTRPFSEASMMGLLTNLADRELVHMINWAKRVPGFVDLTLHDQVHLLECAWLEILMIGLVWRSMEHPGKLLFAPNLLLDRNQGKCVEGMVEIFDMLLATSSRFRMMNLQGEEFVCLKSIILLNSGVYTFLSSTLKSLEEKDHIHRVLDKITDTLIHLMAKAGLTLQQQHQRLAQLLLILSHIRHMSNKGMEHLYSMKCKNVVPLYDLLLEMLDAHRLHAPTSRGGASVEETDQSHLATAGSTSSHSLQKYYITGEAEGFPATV
Kind of assay: Agonist activity at estrogen receptor alpha ligand binding domain expressed in african green monkey COS7 cells co-transfected with Gal4-LBD by luciferase reporter gene assay. Format: cell-based, COS-7. (In general: A reporter such as luciferase makes a cellular process visible.)

The target of another assay is T2, Progesterone receptor (Homo sapiens, UniProt P06401).
T2 sequence (P06401 whole entry): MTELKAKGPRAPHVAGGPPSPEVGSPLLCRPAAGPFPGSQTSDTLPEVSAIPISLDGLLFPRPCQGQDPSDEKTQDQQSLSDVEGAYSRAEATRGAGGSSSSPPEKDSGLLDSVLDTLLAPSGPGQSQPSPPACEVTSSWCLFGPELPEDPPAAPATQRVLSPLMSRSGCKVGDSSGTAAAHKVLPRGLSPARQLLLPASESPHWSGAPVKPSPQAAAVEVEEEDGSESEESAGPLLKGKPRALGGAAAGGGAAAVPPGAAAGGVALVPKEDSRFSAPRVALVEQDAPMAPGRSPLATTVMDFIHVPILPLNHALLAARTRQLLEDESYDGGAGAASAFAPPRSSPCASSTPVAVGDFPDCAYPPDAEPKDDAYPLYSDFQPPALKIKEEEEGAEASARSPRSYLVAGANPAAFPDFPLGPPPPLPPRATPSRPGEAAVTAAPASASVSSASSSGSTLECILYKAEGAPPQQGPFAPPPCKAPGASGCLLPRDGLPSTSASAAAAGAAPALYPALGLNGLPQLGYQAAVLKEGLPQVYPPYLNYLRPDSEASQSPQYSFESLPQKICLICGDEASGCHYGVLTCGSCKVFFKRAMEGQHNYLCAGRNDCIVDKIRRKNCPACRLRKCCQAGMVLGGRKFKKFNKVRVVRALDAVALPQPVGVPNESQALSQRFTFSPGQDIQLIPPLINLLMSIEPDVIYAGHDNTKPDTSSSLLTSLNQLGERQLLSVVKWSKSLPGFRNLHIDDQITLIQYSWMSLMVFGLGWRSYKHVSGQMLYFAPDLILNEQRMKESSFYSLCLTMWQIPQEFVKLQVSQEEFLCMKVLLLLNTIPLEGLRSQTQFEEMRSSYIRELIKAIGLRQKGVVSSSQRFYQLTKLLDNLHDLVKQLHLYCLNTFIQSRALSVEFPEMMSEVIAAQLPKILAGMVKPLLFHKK

The target in assay [1] is T3, Mineralocorticoid receptor (Homo sapiens, UniProt P08235).
T3 sequence (P08235 whole entry): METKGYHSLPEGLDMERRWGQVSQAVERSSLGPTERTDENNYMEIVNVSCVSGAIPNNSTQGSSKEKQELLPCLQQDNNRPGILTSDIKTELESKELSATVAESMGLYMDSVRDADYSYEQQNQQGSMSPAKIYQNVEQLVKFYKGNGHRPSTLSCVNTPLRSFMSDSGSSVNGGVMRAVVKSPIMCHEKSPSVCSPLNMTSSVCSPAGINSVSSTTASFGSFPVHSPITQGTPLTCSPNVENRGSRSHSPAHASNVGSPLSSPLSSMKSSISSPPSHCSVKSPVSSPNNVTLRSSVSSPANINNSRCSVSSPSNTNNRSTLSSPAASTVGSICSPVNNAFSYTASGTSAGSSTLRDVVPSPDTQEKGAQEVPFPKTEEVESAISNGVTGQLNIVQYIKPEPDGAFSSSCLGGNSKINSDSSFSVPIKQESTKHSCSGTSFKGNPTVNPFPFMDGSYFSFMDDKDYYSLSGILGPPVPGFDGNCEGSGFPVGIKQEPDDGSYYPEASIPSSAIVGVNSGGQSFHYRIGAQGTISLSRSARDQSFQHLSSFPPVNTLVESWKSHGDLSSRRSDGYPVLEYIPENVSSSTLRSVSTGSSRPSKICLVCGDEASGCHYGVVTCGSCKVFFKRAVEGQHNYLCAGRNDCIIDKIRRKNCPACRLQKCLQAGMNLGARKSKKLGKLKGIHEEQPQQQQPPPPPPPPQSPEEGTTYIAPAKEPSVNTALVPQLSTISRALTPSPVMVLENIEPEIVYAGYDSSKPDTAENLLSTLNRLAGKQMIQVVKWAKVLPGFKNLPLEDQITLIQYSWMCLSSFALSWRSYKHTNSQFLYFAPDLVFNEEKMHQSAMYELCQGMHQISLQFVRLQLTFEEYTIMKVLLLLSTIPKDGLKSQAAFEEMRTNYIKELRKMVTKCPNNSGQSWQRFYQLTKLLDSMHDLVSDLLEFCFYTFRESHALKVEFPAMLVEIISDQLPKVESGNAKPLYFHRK
Description: Agonist activity at mineralocorticoid receptor ligand binding domain expressed in african green monkey COS7 cells co-transfected with Gal4-LBD up to 10 uM by luciferase reporter gene assay. The note with it: cos-7. Format: cell-based.

The target of the next assay is Estrogen receptor beta (Homo sapiens, UniProt Q92731). Kind of assay: Antagonist activity at estrogen receptor beta ligand binding domain expressed in african green monkey COS7 cells co-transfected with Gal4-LBD by luciferase reporter gene assay relative to control. The note with it: COS-7. Format: cell-based. The arrangement: scale not given: the % may be the effect or the level left.
Sequence of Estrogen receptor beta (Q92731 whole entry, the tested form may be a part): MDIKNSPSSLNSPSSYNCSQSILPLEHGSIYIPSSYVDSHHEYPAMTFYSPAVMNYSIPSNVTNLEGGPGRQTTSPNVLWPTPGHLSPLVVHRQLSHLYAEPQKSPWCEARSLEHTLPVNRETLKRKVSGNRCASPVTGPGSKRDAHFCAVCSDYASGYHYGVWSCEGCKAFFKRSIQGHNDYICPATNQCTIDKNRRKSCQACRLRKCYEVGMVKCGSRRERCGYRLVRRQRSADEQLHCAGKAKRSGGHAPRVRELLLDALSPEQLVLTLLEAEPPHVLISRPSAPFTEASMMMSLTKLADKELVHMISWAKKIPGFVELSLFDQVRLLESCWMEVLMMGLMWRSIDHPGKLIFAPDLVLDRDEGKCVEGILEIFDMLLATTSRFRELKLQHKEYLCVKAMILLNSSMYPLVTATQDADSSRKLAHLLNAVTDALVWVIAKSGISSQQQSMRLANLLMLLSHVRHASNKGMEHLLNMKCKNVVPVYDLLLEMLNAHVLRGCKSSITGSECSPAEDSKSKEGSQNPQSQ

The term pEC50 denotes the EC50 on a negative log10 scale, so that one unit is a factor of ten. With `CC1(C)C(=O)CC[C@]2(C)[C@@]3(C)c4[nH]c5ccccc5c4C[C@@H]3CC[C@@]12O` [LECANINDOLE B], the negative-log EC50 (pEC50) at Estrogen receptor was less than 5.00; on Progesterone receptor, 9.52. Further, the EC50 result in assay [1] is given as “Not Active”. Further, the Activity on Estrogen receptor beta was determined as 12%.
For the molecule `CC1(C)[C@H](O)CC[C@]2(C)[C@@]3(C)c4[nH]c5ccccc5c4C[C@@H]3CC[C@@]12O` [LECANINDOLE D], the pEC50 on Estrogen receptor was less than 5.00; on Progesterone receptor, 8.96. Moreover, in assay [1], the EC50 entry is “Not Active”. The Activity on Estrogen receptor beta came out at 64%.
